Reference: PubChem BioAssay (NCI)
Where “and” joins values, the source holds several entries; their conditions need not be identical. Equal entries are not always repeated.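 GI50: concentration for 50% inhibition of growth. TGI: concentration producing complete growth inhibition.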

Assays:
Assay in all cases: NCI tumour cell line growth inhibition, 384-well format
786-0 renal = tested on: 786-0 renal
A498 renal = tested on: A498 renal
A549 NSCLC = tested on: A549 NSCLC
ACHN renal = tested on: ACHN renal
BT-549 breast = tested on: BT-549 breast
CAKI-1 renal = tested on: CAKI-1 renal
COLO 205 colon = tested on: COLO 205 colon
DU-145 prostate = tested on: DU-145 prostate
EKVX NSCLC = tested on: EKVX NSCLC
HCT-116 colon = tested on: HCT-116 colon
HCT-15 colon = tested on: HCT-15 colon
HL-60(TB) leukemia = tested on: HL-60(TB) leukemia
HOP-62 NSCLC = tested on: HOP-62 NSCLC
HOP-92 NSCLC = tested on: HOP-92 NSCLC
HS 578T breast = tested on: HS 578T breast
HT29 colon = tested on: HT29 colon
IGROV1 ovarian = tested on: IGROV1 ovarian
K-562 leukemia = tested on: K-562 leukemia
KM12 colon = tested on: KM12 colon
M14 melanoma = tested on: M14 melanoma
MALME-3M melanoma = tested on: MALME-3M melanoma
MCF7 breast = tested on: MCF7 breast
MDA-MB-231 breast = tested on: MDA-MB-231 breast
MDA-MB-435 melanoma = tested on: MDA-MB-435 melanoma
MDA-MB-468 breast = tested on: MDA-MB-468 breast
NCI-H226 lung = tested on: NCI-H226 lung
NCI-H23 lung = tested on: NCI-H23 lung
NCI-H322M lung = tested on: NCI-H322M lung
NCI-H460 NSCLC = tested on: NCI-H460 NSCLC
NCI-H522 lung = tested on: NCI-H522 lung
OVCAR-3 ovarian = tested on: OVCAR-3 ovarian
OVCAR-4 ovarian = tested on: OVCAR-4 ovarian
OVCAR-5 ovarian = tested on: OVCAR-5 ovarian
OVCAR-8 ovarian = tested on: OVCAR-8 ovarian
PC-3 prostate = tested on: PC-3 prostate
RXF 393 renal = tested on: RXF 393 renal
SF-268 CNS = tested on: SF-268 CNS
SF-295 CNS = tested on: SF-295 CNS
SF-539 CNS = tested on: SF-539 CNS
SK-MEL-2 melanoma = tested on: SK-MEL-2 melanoma
SK-MEL-28 melanoma = tested on: SK-MEL-28 melanoma
SK-MEL-5 melanoma = tested on: SK-MEL-5 melanoma
SK-OV-3 ovarian = tested on: SK-OV-3 ovarian
SN12C renal = tested on: SN12C renal
SNB-19 CNS = tested on: SNB-19 CNS
SNB-75 CNS = tested on: SNB-75 CNS
SW-620 colon = tested on: SW-620 colon
T-47D breast = tested on: T-47D breast
TK-10 renal = tested on: TK-10 renal
U251 glioblastoma = tested on: U251 glioblastoma
UACC-257 melanoma = tested on: UACC-257 melanoma
UACC-62 melanoma = tested on: UACC-62 melanoma
UO-31 renal = tested on: UO-31 renal

COc1ccc(C2=N[C@@H](c3ccc(Cl)cc3)[C@@H](c3ccc(Cl)cc3)N2C(=O)N2CCNC(=O)C2)c(OC(C)C)c1
GI50 ([…]-0 renal): 14.7 µM and 14 µM and 11.2 µM | TGI (786-0 renal): 27.9 µM and 27.1 µM and 23.3 µM | TGI (A498 renal): 23.1 µM and 13.1 µM and 13.5 µM | GI50 (A549 NSCLC): 14.6 µM and 2.28 µM and 2.23 µM | TGI (A549 NSCLC): 27.8 µM and 14.7 µM and 13.8 µM | TGI (ACHN renal): 24.2 µM and 11.4 µM and 11.2 µM | GI50 (BT-549 breast): 16.6 µM and 16.9 µM | TGI (BT-549 breast): 30.3 µM and 30.2 µM and 30.6 µM | TGI (CAKI-1 renal): 21.1 µM and 11.9 µM and 12.4 µM | GI50 (COLO 205 colon): 15.9 µM and 16.8 µM and 14.9 µM | TGI (COLO 205 colon): 29.5 µM and 30.7 µM and 28.3 µM | GI50 (DU-145 prostate): 15.2 µM and 15.7 µM | TGI (DU-145 prostate): 28.6 µM and 29.3 µM and 28.7 µM | GI50 (EKVX NSCLC): 15 µM and 15.3 µM and 14.6 µM | TGI (EKVX NSCLC): 28.3 µM and 28.7 µM and 27.8 µM | TGI (HCT-116 colon): 24 µM and 14.5 µM and 12.8 µM | GI50 (HCT-15 colon): 16 µM and 16.1 µM and 14 µM | TGI (HCT-15 colon): 29.7 µM and 30.1 µM and 27.1 µM | GI50 (HL-60(TB) leukemia): 2.99 µM and 3.06 µM and 3.55 µM | TGI (HL-60(TB) leukemia): 12.9 µM and 15.7 µM and 15.8 µM | GI50 (HOP-62 NSCLC): 15.6 µM and 2.36 µM and 5.46 µM | TGI (HOP-62 NSCLC): 29.1 µM and 19.6 µM and 20.5 µM | GI50 (HOP-92 NSCLC): 15.2 µM and 13.4 µM and 11.8 µM | TGI (HOP-92 NSCLC): 28.5 µM and 26.3 µM and 24.1 µM | GI50 (HS 578T breast): 13.4 µM and 12.8 µM and 12.2 µM | TGI (HS 578T breast): 26.2 µM and 25.5 µM and 24.7 µM | GI50 (HT29 colon): 11.8 µM and 13.4 µM and 10.5 µM | TGI (HT29 colon): 24.2 µM and 26.3 µM and 22.3 µM | GI50 (IGROV1 ovarian): 13.5 µM and 10.9 µM and 7.76 µM | TGI (IGROV1 ovarian): 26.5 µM and 23 µM and 21 µM | GI50 (K-562 leukemia): 11.4 µM and 4.93 µM and 2.55 µM | TGI (K-562 leukemia): 23.9 µM and 20.3 µM and 17 µM | TGI (KM12 colon): 27.8 µM and 12.7 µM and 12.3 µM | GI50 (M14 melanoma): 13.1 µM and 10 µM and 11.1 µM | TGI (M14 melanoma): 25.8 µM and 21.6 µM and 23.1 µM | GI50 (MALME-3M melanoma): 8.12 µM and 2.75 µM and 5.41 µM | TGI (MALME-3M melanoma): 20.3 µM and 19.3 µM and 19.7 µM | GI50 (MCF7 breast): 3.43 µM and 1.73 µM and 0.718 µM | TGI (MCF7 breast): 16.8 µM and 8.38 µM and 8.52 µM | GI50 (MDA-MB-231 breast): 17 µM and 14.1 µM and 12.9 µM | TGI (MDA-MB-231 breast): 30.8 µM and 27.1 µM and 25.6 µM | GI50 (MDA-MB-435 melanoma): 13.8 µM and 16.4 µM and 15.8 µM | TGI (MDA-MB-435 melanoma): 26.8 µM and 30.1 µM and 29.4 µM | GI50 (MDA-MB-468 breast): 12.4 µM and 11 µM and 11.5 µM | TGI (MDA-MB-468 breast): 24.9 µM and 23 µM and 23.7 µM | TGI (NCI-H226 lung): 23.7 µM and 2.47 µM and 3.4 µM | GI50 (NCI-H23 lung): 14.5 µM and 15.1 µM | TGI (NCI-H23 lung): 27.6 µM and 28.5 µM | GI50 (NCI-H322M lung): 19.3 µM and 17.7 µM and 13.7 µM | TGI (NCI-H322M lung): 33.6 µM and 31.6 µM and 26.7 µM | GI50 (NCI-H460 NSCLC): 15.3 µM and 10.4 µM and 8.98 µM | TGI (NCI-H460 NSCLC): 28.9 µM and 22.5 µM and 21.3 µM | GI50 (NCI-H522 lung): 14.1 µM and 15 µM and 14.8 µM | TGI (NCI-H522 lung): 27.1 µM and 28.3 µM and 28 µM | GI50 (OVCAR-3 ovarian): 12.8 µM and 12 µM and 12.1 µM | TGI (OVCAR-3 ovarian): 25.5 µM and 24.6 µM | GI50 (OVCAR-4 ovarian): 14 µM and 14.2 µM and 13.8 µM | TGI (OVCAR-4 ovarian): 27 µM and 27.4 µM and 26.8 µM | GI50 (OVCAR-5 ovarian): 16.9 µM and 17.6 µM and 16.7 µM | TGI (OVCAR-5 ovarian): 30.6 µM and 31.8 µM and 30.5 µM | GI50 (OVCAR-8 ovarian): 15.6 µM and 11.9 µM and 10.5 µM | TGI (OVCAR-8 ovarian): 29.1 µM and 24.4 µM and 22.3 µM | GI50 (PC-3 prostate): 12.5 µM and 13 µM and 12.6 µM | TGI (PC-3 prostate): 25.1 µM and 25.8 µM and 25.2 µM | TGI (RXF 393 renal): 24.8 µM and 16.3 µM and 14.9 µM | GI50 (SF-268 CNS): 16.7 µM and 13.4 µM and 10.7 µM | TGI (SF-268 CNS): 30.4 µM and 26.4 µM and 22.6 µM | GI50 (SF-295 CNS): 15.3 µM and 14.5 µM and 12.9 µM | TGI (SF-295 CNS): 28.7 µM and 27.7 µM and 25.7 µM | GI50 (SF-539 CNS): 16.1 µM and 13.7 µM and 10.6 µM | TGI (SF-539 CNS): 29.6 µM and 26.8 µM and 22.4 µM | GI50 (SK-MEL-2 melanoma): 18.7 µM and 18.1 µM and 14.5 µM | TGI (SK-MEL-2 melanoma): 32.7 µM and 32.1 µM and 27.7 µM | GI50 (SK-MEL-28 melanoma): 15.6 µM and 18.7 µM and 18 µM | TGI (SK-MEL-28 melanoma): 29 µM and 32.9 µM and 32 µM | GI50 (SK-MEL-5 melanoma): 14.3 µM and 8.52 µM and 7.04 µM | TGI (SK-MEL-5 melanoma): 27.5 µM and 20.6 µM and 20 µM | GI50 (SK-OV-3 ovarian): 19.7 µM and 16 µM and 12.9 µM | TGI (SK-OV-3 ovarian): 34 µM and 29.6 µM and 25.7 µM | GI50 (SN12C renal): 15.5 µM and 17.2 µM and 16.1 µM | TGI (SN12C renal): 28.9 µM and 31 µM and 29.6 µM | GI50 (SNB-19 CNS): 14.3 µM and 14.6 µM | TGI (SNB-19 CNS): 27.4 µM and 27.9 µM | GI50 (SNB-75 CNS): 13.3 µM and 11.9 µM and 11.6 µM | TGI (SNB-75 CNS): 26.1 µM and 24.2 µM and 23.9 µM | GI50 (SW-620 colon): 13.1 µM and 11 µM and 3.58 µM | TGI (SW-620 colon): 26 µM and 23.3 µM and 19.4 µM | GI50 (T-47D breast): 17 µM and 14.7 µM and 13.8 µM | TGI (T-47D breast): 30.7 µM and 28 µM and 26.7 µM | GI50 (TK-10 renal): 15.1 µM and 13.5 µM and 11.3 µM | TGI (TK-10 renal): 28.5 µM and 26.4 µM and 23.5 µM | GI50 (U251 glioblastoma): 14.7 µM and 13.7 µM and 10.9 µM | TGI (U251 glioblastoma): 28 µM and 26.7 µM and 22.9 µM | GI50 (UACC-257 melanoma): 15.5 µM and 5.8 µM and 8.65 µM | TGI (UACC-257 melanoma): 28.9 µM and 18 µM and 20.8 µM | TGI (UACC-62 melanoma): 21.8 µM and 8.99 µM and 11.3 µM | GI50 (UO-31 renal): 11.2 µM and 4.63 µM and 5.1 µM | TGI (UO-31 renal): 23.3 µM and 15.8 µM and 16 µM
